Reference: patent US5563176A (priority 1994, dated 1996)
Where two headings read alike, the source gives them in different places.

Experiments:
[1] = test system: L1210 PAM (melphalan) cells; assay: sensitivity of mdr lines, L1210 PAM; format: cell-based; conditions: Mus musculus
KB VBL (gp170+) cells = assay: sensitivity of mdr lines, KB VBL; format: cell-based
[2] = test system: HL60/MRI cells (human myeloid leukemia tumor cells)
L1210 parent cells = assay: sensitivity of mdr lines, L1210 parent; format: cell-based; conditions: Mus musculus
[3] = test system: human lung adenocarcinoma MV522; assay: animal or person; conditions: MV522, ip, read-out: life span
[4] = test system: Molt-4 (human T-cell leukemia) xenograft; assay: Molt-4 xenograft in athymic Balb/c nu/nu mice; format: in vivo; conditions: 30 μg/kg, nude mice; FIG. 5
CFU-GM = assay: colony formation zone size, CFU-GM; conditions: for Zone Size: CFU-GM

SMILES: CC1=C2C(=O)C(C)(C)C=C2C(=O)[C@](C)(O)C12CC2 [Dehydroilludin M]
- IC50 [1]: 73 ± 31 nM
- IC50 (KB VBL (gp170+) cells): 78 ± 19 nM
- total tumor weight ([2]; 1 mg/kg IV, day 11): 114 ± 55 Mg
- total tumor weight ([2]; 1 mg/kg IV, day 18): 883 ± 311 Mg
- total tumor weight ([2]; 1 mg/kg IV, day 25): 2274 ± 992 Mg
- total tumor weight ([2]; 1 mg/kg IV, day 32): 6025 ± 1772 Mg
- total tumor weight ([2]; 1 mg/kg IV, day 40): 11507 ± 3707 Mg
- total tumor weight ([2]; 3 mg/kg IV, day 11): 101 ± 40 Mg
- total tumor weight ([2]; 3 mg/kg IV, day 18): 911 ± 309 Mg
- total tumor weight ([2]; 3 mg/kg IV, day 25): 2127 ± 1092 Mg
- total tumor weight ([2]; 3 mg/kg IV, day 32): 2854 ± 1260 Mg
- total tumor weight ([2]; 3 mg/kg IV, day 40): 4784 ± 2303 Mg
- tumor inhibition ([2]; IP twice a week, FIG. 6): dose related tumor inhibition
- inhibition of tumor growth ([2]; IV twice a week, dose dependent): effective at inhibiting tumor growth
- adverse effects (food or water intake, body weight) ([2]; highest amount of either drug, IV): did not display any evidence of adverse effect
- IC50 (L1210 parent cells): 62 ± 8 nM
- response vs control in vivo at 30 mg/kg [3]: 163 ± 6%
- complete regression of tumors [4]: three of five tumors underwent complete regression
- Zone Size (CFU-GM; dilution 1/25): 200
- Zone Size (CFU-GM; dilution 1/125): 100
- Zone Size (CFU-GM; dilution 1/125 (repeat)): 50
- Zone Size (CFU-GM; dilution 1/625): 0
- effect on CFU-gm cells (CFU-GM; at concentrations inhibiting AML colony formation): no effect
